Laboratory results as given in EPA's ToxRefDB 2.

Columns and labels:
rat [1] = settings: Subchronic oral toxicity in rodents, fischer, Water, dose end: 3 month, group: systemic, systemic / clinical chemistry / alanine aminotransferase (alt/sgpt) / alanine aminotransferase (alt/sgpt) + systemic / clinical chemistry / …
mouse [2] = settings: Subchronic oral toxicity in rodents, b6c3f1, Water, dose end: 3 month, group: systemic
rat [3] = settings: Combined chronic toxicity/carcinogenicity, fischer, Oral, Water, dose end: 105 week, group: systemic
mouse [4] = settings: Combined chronic toxicity/carcinogenicity, b6c3f1, Oral, Water, dose end: 105 week, group: systemic
dog = settings: Subchronic oral toxicity in nonrodent, beagle, Water, dose end: 90 day, group: systemic, systemic / in life observation / clinical signs / vomitting
rat [5] = settings: Multigenerational reproductive toxicity study, sprague dawley, Oral, Water, dose end: 2 generation
rat [6] = settings: Prenatal developmental toxicity study, wistar, Oral, Gavage/Intubation, dose end: 15 GD
mouse [7] = settings: Chronic toxicity; b6c3f1; Inhalation; Whole-Body; dose end: 78 week; group: systemic; systemic / in life observation / body weight / body weight gain + systemic / pathology microscopic / nose / hyperplasia
rat [8] = settings: Multigenerational reproductive toxicity study, wistar, Oral, Water, dose end: 2 generation
rabbit = settings: Prenatal developmental toxicity study, himalayan, Oral, Gavage/Intubation, dose end: 19 GD
rat [9] = settings: Combined chronic toxicity/carcinogenicity, fischer, Oral, Water, dose end: 104 week, group: systemic
rat [10] = settings: Subchronic inhalation toxicity, fischer, Whole-Body, dose end: 13 week, group: systemic
rat [11] = settings: Carcinogenicity, wistar, Oral, Water, dose end: 24 month, group: systemic
rat [12] = settings: Chronic toxicity, wistar, Oral, Water, dose end: 12 month, group: systemic
rat [13] = settings: Subchronic dermal toxicity, sprague dawley, Topical, dose end: 90 day, group: systemic, systemic / pathology gross / skin / scabbing + systemic / pathology microscopic / skin / acanthosis + systemic / pathology microscopic / …
mouse [14] = settings: Subchronic oral toxicity in rodents, cd1, Water, dose end: 90 day, group: systemic, systemic / pathology microscopic / stomach / inflammation + systemic / urinalysis / specific gravity/osmolality / specific gravity/…
mouse [15] = settings: Subchronic inhalation toxicity, b6c3f1, Whole-Body, dose end: 13 week
rat [16] = settings: Multigenerational reproductive toxicity study, sprague dawley, Oral, Water, dose end: 2 generation; remark: listed apart in the source
rat [17] = settings: Multigenerational reproductive toxicity study; sprague dawley; Oral; Feed; dose end: 2 generation; group: offspring; systemic / in life observation / body weight / offspring (pup) weight
mouse [18] = settings: Carcinogenicity, cd1, Oral, Feed, dose end: 104 week, group: systemic
rat [19] = settings: Prenatal developmental toxicity study, sprague dawley, Oral, Gavage/Intubation, dose end: 15 GD
[20] = systemic / hematology / erythrocyte (rbc) count differential / erythrocyte (rbc) + systemic / hematology / hemoglobin (hgb) / hemoglobin (…
[21] = systemic / hematology / mean corpuscular hemoglobin (mch) / mean corpuscular hemoglobin (mch) + systemic / pathology microscopic / intestine…
[22] = systemic / pathology microscopic / liver / inflammation
[23] = systemic / pathology microscopic / oral mucosa / squamous cell carcinoma + systemic / clinical chemistry / alanine aminotransferase (alt/…
[24] = systemic / pathology microscopic / intestine small / adenoma + systemic / pathology microscopic / intestine small / carcinoma + systemic / …
[25] = systemic / pathology microscopic / intestine small / hyperplasia + systemic / pathology microscopic / lymph node / infiltration cellular + …
[26] = group: offspring, systemic / in life observation / body weight / offspring (pup) weight
[27] = group: parental, systemic / in life observation / food consumption / food consumption
[28] = group: parental, systemic / in life observation / food consumption / food consumption + systemic / pathology gross / lymph node / enlarged + systemic / …
[29] = group: developmental, systemic / in life observation / body weight / fetal weight
[30] = group: maternal, systemic / in life observation / body weight / body weight gain + systemic / in life observation / clinical signs / piloerection + systemic…
[31] = group: maternal, systemic / in life observation / clinical signs / piloerection
[32] = group: offspring, systemic / in life observation / body weight / litter weight + systemic / in life observation / body weight / offspring (pup) weight
[33] = group: parental, systemic / in life observation / body weight / body weight + systemic / in life observation / body weight / body weight gain + systemic / in…
[34] = group: parental, systemic / in life observation / water consumption / water consumption
[35] = group: maternal, systemic / in life observation / body weight / body weight + systemic / in life observation / body weight / body weight gain + systemic / in…
[36] = systemic / organ weight / kidney / relative to body weight + systemic / in life observation / clinical signs / urine staining - perineum + …
[37] = systemic / organ weight / kidney / relative to body weight + systemic / pathology gross / stomach / [other] + systemic / clinical chemistry…
[38] = systemic / pathology microscopic / nose / [other] + systemic / pathology microscopic / nose / hyperplasia + systemic / pathology microscopic…
[39] = systemic / in life observation / water consumption / water consumption
[40] = systemic / in life observation / body weight / body weight gain + systemic / pathology gross / stomach / erosion + systemic / pathology …
[41] = group: developmental, developmental / developmental malformation / penis / paraphimosis
[42] = group: maternal, reproductive / reproductive performance / estrous cycle / abnormal
[43] = group: systemic, systemic / pathology microscopic / nose / inflammation
[44] = group: systemic, systemic / pathology microscopic / nose / inflammation + systemic / in life observation / body weight / body weight gain
[45] = group: offspring, systemic / in life observation / body weight / offspring (pup) weight gain
[46] = systemic / in life observation / body weight / body weight gain + systemic / pathology microscopic / intestine small / hyperplasia + …
[47] = group: developmental, developmental / developmental malformation / bone / absent + developmental / developmental malformation / bone / fused + developmental / …
[48] = group: maternal, systemic / in life observation / clinical signs / alopecia + systemic / in life observation / clinical signs / defecation (diarrhea) + …

`O.O.[Na+].[Na+].[O]=[Cr](=[O])([O-])[O][Cr](=[O])(=[O])[O-]` [Sodium dichromate(VI) dihydrate] gave an LEL (rat [1]) of 5 mg/kg/day, an LOAEL (rat [1]) of over 60 mg/kg/day and an NEL (rat [1]) of under 5 mg/kg/day. The NOAEL (rat [1]) was at least 60 mg/kg/day, the LOAEL (mouse [2]; [20]) was over 80 mg/kg/day and the NOAEL (mouse [2]; [20]) was at least 80 mg/kg/day. The LEL (mouse [2]; [21]) was 9 mg/kg/day, the NEL (mouse [2]; [21]) was under 9 mg/kg/day and the LEL (rat [3]; [22]) was 0.7 mg/kg/day. The NEL (rat [3]; [22]) was under 0.7 mg/kg/day, the LOAEL (rat [3]; [23]) was over 17 mg/kg/day and the NOAEL (rat [3]; [23]) was at least 17 mg/kg/day. The LOAEL (mouse [4]; [24]) was over 17 mg/kg/day, the NOAEL (mouse [4]; [24]) was at least 17 mg/kg/day and the LEL (mouse [4]; [25]) was 1.1 mg/kg/day. For the same compound, the NEL (mouse [4]; [25]) was under 1.1 mg/kg/day.

Work on `O=CCCCC=O` [Glutaraldehyde] yielded an LEL (dog) of 14.6 mg/kg/day, an LOAEL (dog) of 14.6 mg/kg/day and an NEL (dog) of 9.8 mg/kg/day. For the same compound, the NOAEL (dog) was 9.8 mg/kg/day, the LEL (rat [5]; [26]) was 71.1 mg/kg/day and the LOAEL (rat [5]; [26]) was 71.1 mg/kg/day. The NEL (rat [5]; [26]) was 20.9 mg/kg/day, the NOAEL (rat [5]; [26]) was 20.9 mg/kg/day and the LEL (rat [5]; [27]) was 19.5 mg/kg/day. The LOAEL (rat [5]; [27]) was 19.5 mg/kg/day, the NEL (rat [5]; [28]) was 4.25 mg/kg/day and the NOAEL (rat [5]; [28]) was 4.25 mg/kg/day. It also gave an LEL (rat [6]; [29]) of 100 mg/kg/day, an LOAEL (rat [6]; [29]) of over 100 mg/kg/day and an NEL (rat [6]; [29]) of 50 mg/kg/day. It also gave an NOAEL (rat [6]; [29]) of at least 100 mg/kg/day, an LOAEL (rat [6]; [30]) of over 100 mg/kg/day and an NOAEL (rat [6]; [30]) of at least 100 mg/kg/day. It also gave an LEL (rat [6]; [31]) of 25 mg/kg/day, an NEL (rat [6]; [31]) of under 25 mg/kg/day and an LEL (mouse [7]) of 0.1 ppm. For the same compound, the LOAEL (mouse [7]) was over 0.1 ppm, the NEL (mouse [7]) was under 0.1 ppm and the NOAEL (mouse [7]) was at least 0.1 ppm. The LEL (rat [8]; [32]) was 76 mg/kg/day, the LOAEL (rat [8]; [32]) was 76 mg/kg/day and the NEL (rat [8]; [32]) was 22.4 mg/kg/day. The NOAEL (rat [8]; [32]) was 22.4 mg/kg/day, the LOAEL (rat [8]; [33]) was 76 mg/kg/day and the NOAEL (rat [8]; [33]) was 22.4 mg/kg/day. For the same compound, the LEL (rat [8]; [34]) was 22.4 mg/kg/day, the NEL (rat [8]; [34]) was 4.7 mg/kg/day and the LEL (rabbit; [29]) was 45 mg/kg/day. It also gave an LOAEL (rabbit; [29]) of 45 mg/kg/day, an NEL (rabbit; [29]) of 15 mg/kg/day and an NOAEL (rabbit; [29]) of 15 mg/kg/day. The LEL (rabbit; [35]) was 45 mg/kg/day, the LOAEL (rabbit; [35]) was 45 mg/kg/day and the NEL (rabbit; [35]) was 15 mg/kg/day. It also gave an NOAEL (rabbit; [35]) of 15 mg/kg/day, an LEL (rat [9]; [36]) of 4 mg/kg/day and an NEL (rat [9]; [36]) of under 4 mg/kg/day. For the same compound, the LOAEL (rat [9]; [37]) was over 64 mg/kg/day, the NOAEL (rat [9]; [37]) was at least 64 mg/kg/day and the LEL (rat [10]; systemic / hematology / neutrophils / neutrophils) was 0.125 ppm. For the same compound, the NEL (rat [10]; systemic / hematology / neutrophils / neutrophils + systemic / clinical chemistry / alanine aminotransferase (alt/sgpt) / alanine …) was 0.0625 ppm, the LOAEL (rat [10]; [38]) was 0.25 ppm and the NOAEL (rat [10]; [38]) was 0.125 ppm. The LEL (rat [11]; [39]) was 5.3 mg/kg/day, the NEL (rat [11]; [39]) was under 5.3 mg/kg/day and the LOAEL (rat [11]; systemic / pathology microscopic / larynx / metaplasia) was 61 mg/kg/day. For the same compound, the NOAEL (rat [11]; systemic / pathology microscopic / larynx / metaplasia + systemic / in life observation / body weight / body weight + systemic / in life …) was 16.1 mg/kg/day, the LOAEL (rat [12]; [40]) was 58.9 mg/kg/day and the NOAEL (rat [12]; [40]) was 15.4 mg/kg/day. It also gave an LEL (rat [12]; systemic / pathology gross / pituitary gland / enlarged) of 23.2 mg/kg/day, an NEL (rat [12]; systemic / pathology gross / pituitary gland / enlarged + systemic / in life observation / clinical signs / abnormal respiratory sounds + …) of 4.8 mg/kg/day and an LEL (rat [13]) of 50 mg/kg/day. It also gave an LOAEL (rat [13]) of 50 mg/kg/day, an NEL (rat [13]) of under 50 mg/kg/day and an NOAEL (rat [13]) of under 50 mg/kg/day. It also gave an LEL (mouse [14]) of 200 mg/kg/day, an LOAEL (mouse [14]) of 200 mg/kg/day and an NEL (mouse [14]) of 60.8 mg/kg/day. The NOAEL (mouse [14]) was 60.8 mg/kg/day, the LEL (mouse [15]; [41]) was 1 ppm and the LOAEL (mouse [15]; [41]) was over 1 ppm. It also gave an NEL (mouse [15]; [41]) of 0.5 ppm, an NOAEL (mouse [15]; [41]) of at least 1 ppm and an LEL (mouse [15]; [42]) of 0.5 ppm. For the same compound, the LOAEL (mouse [15]; [42]) was over 1 ppm, the NEL (mouse [15]; [42]) was 0.25 ppm and the NOAEL (mouse [15]; [42]) was at least 1 ppm. The LOAEL (mouse [15]; [43]) was 0.0625 ppm, the NOAEL (mouse [15]; [43]) was under 0.0625 ppm and the LEL (mouse [15]; [44]) was 0.0625 ppm. It also gave an NEL (mouse [15]; [44]) of under 0.0625 ppm, an LEL (rat [16]; [45]) of 98.4 mg/kg/day and an LOAEL (rat [16]; [45]) of 98.4 mg/kg/day. For the same compound, the NEL (rat [16]; [45]) was 28.3 mg/kg/day, the NOAEL (rat [16]; [45]) was 28.3 mg/kg/day and the LEL (rat [16]; [34]) was 19.5 mg/kg/day. It also gave an LOAEL (rat [16]; [34]) of over 69.1 mg/kg/day, an NEL (rat [16]; [34]) of 4.25 mg/kg/day and an NOAEL (rat [16]; [34]) of at least 69.1 mg/kg/day.

Work on `N#CSCSc1nc2ccccc2s1` [2-(Thiocyanomethylthio)benzothiazole] yielded an LEL (rat [17]) of 38.4 mg/kg/day, an LOAEL (rat [17]) of 38.4 mg/kg/day and an NEL (rat [17]) of 9.6 mg/kg/day. For the same compound, the NOAEL (rat [17]) was 9.6 mg/kg/day, the LOAEL (mouse [18]; systemic / in life observation / body weight / body weight gain + systemic / pathology microscopic / intestine small / hyperplasia) was 148 mg/kg/day and the LEL (mouse [18]; [46]) was 148 mg/kg/day. It also gave an NEL (mouse [18]; [46]) of 49.3 mg/kg/day, an NOAEL (mouse [18]; [46]) of 49.3 mg/kg/day and an LEL (rat [19]; [47]) of 126 mg/kg/day. The LOAEL (rat [19]; [47]) was 126 mg/kg/day, the NEL (rat [19]; [47]) was 76.5 mg/kg/day and the NOAEL (rat [19]; [47]) was 76.5 mg/kg/day. For the same compound, the LEL (rat [19]; [48]) was 76.5 mg/kg/day, the LOAEL (rat [19]; [48]) was 76.5 mg/kg/day and the NEL (rat [19]; [48]) was 25.1 mg/kg/day. For the same compound, the NOAEL (rat [19]; [48]) was 25.1 mg/kg/day.
